Literature values, collected in paper PMC10879279 (Frontiers in Behavioral Neuroscience, 2024).

Experiments:
ADHD patients = details: ref Bodey, 2011; cited from earlier work
Text: To sum up, the development of new medications for disorders with an excessive impulsivity as a major component is of high interest for both academy and industry. Addictions, including substance use disorder and gambling, faces the unmet need for novel medicines ([Rash et al., 2016]). In case of ADHD there is also a need for new medications with novel mechanisms of action since currently approved drugs show a non-response or lack efficacy in a significant number of patients ([Mechler et al., 2022]). Routinely used stimulant methylphenidate is efficient in up to 70% of cases ([Bodey, 2011]), and ...

human = details: ref Shiels et al., 2009; cited from earlier work
Text: (§1) Delay discounting tasks are also used to assess impulsive behavior in human studies, giving an insight into causal mechanism of addictions such as substance abuse and gambling ([Reynolds, 2006]; [de Wit, 2009]; [Hodgins and Holub, 2015]), and ADHD ([Barkley et al., 2001]; [Scheres et al., 2008]; [Shiels et al., 2009]). Impulsivity in the human and rodent delay discounting task derives form the similar neural substrates: lower D2/3 receptor availability in ventral striatum of rats and pathological gamblers, individuals with methamphetamine dependence, and alcohol use disorder ([Voon and Dalley, ...

animal models = details: ref Wooters and Bardo, 2011; cited from earlier work
Text: as §1

For `COC(=O)C(c1ccccc1)C1CCCCN1` (stereo not drawn) [methylphenidate], the “efficient in percent of cases” value (ADHD patients) is listed as “up to 70%”, the “discounting of delayed rewards (in words)” value (human) is listed as “reduced discounting of delayed rewards” and the “discounting of delayed rewards (in words)” value (animal models) is listed as “reduced discounting of delayed rewards”.
